Assay results reported in patent US20060014723A1, “Anti-parasitic uses of borinic acid complexes” (priority 2004, published 2006).
Values after ≈ are worked out from the molar mass of the structure shown.

Columns and labels:
P. falciparum K1 = assay: Malaria in vitro screening model (3H-hypoxanthine incorporation); assay type: cell-based, Plasmodium falciparum
Procedure, shortened: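 Chloroquine/pyrimethamine-resistant P. falciparum K1 in human A+ erythrocytes (0.15% parasitemia, 2.5% hematocrit) was exposed to seven 2-fold compound dilutions in hypoxanthine-free medium at 37 °C, low O2. After 48 h, 0.5 μCi ³H-hypoxanthine was added for 24 h more. IC50 was taken from sigmoidal curves as % of untreated control.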

[1] = tested on: Leishmania donovani strain MHOM/ET1671L82; assay: Leishmaniasis in vitro screening model (axenic amastigotes, Alamar Blue); assay type: cell-based
Procedure, shortened: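 Axenic L. donovani amastigotes (10^5 per well) from hamster spleen, grown at 37° C in SM medium pH 5.4 with 10% FBS, 5% CO2, exposed to serial 3-fold compound dilutions (30 to 0.041 μg/mL) for 72 h. Alamar Blue added for 2 h, fluorescence read (ex 536/em 588 nm); IC50 from sigmoidal curve versus control cultures.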

[2] = tested on: T. b. rhodesiense STIB 900; assay: African sleeping sickness in vitro screening model (Alamar Blue); assay type: cell-based, Trypanosoma brucei rhodesiense
Procedure, shortened: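 Bloodstream-form trypomastigotes, 8×10^3/well, were grown in supplemented MEM with 15% horse serum, without hypoxanthine, at 37 °C in 5% CO2. They were exposed for 72 h to seven 3-fold dilutions from 90 to 0.123 μg/mL. Resazurin (Alamar Blue) was added for 2 h, fluorescence read at ex 536/em 588 nm, and IC50 taken as the mean of four values.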

SMILES	IC50 (P. falciparum K1; Plasmodium falciparum, K1) [µg/mL]	IC50 ([1]; Leishmania donovani, read-out: L. donovani IC50) [µg/mL]	IC50 ([2]; Trypanosoma brucei) [µg/mL]	P. falciparum IC50 (P. falciparum K1) [µg/mL]	L. donovani IC50 [1] [µg/mL]	T. b. rhodesiense IC50 [2] [µg/mL]
COc1ccc(B(Oc2cccc3cccnc23)c2cccc(Cl)c2)cc1OC [Compound 27, (3-Chlorophenyl)(3,4-dimethoxyphenyl)borinic acid quinolin-8-yl ester]	1.7 (≈ 4.21 µM)	0.47 (≈ 1.16 µM)	0.52 (≈ 1.29 µM)			
CC1(C)COC(c2cccc(B(Oc3cccc4cccnc34)c3cccc(C4=NC(C)(C)CO4)c3)c2)=N1 [Compound 13, Bis[3-(4,5-dihydro-4,4-dimethyloxazol-2-yl)phenyl]borinic acid 8-hydroxyquinoline ester]				2	0.82	0.5
